The source of these data is ChEMBL document CHEMBL5725512, “Fused bicyclic 1,2,4-triazine compounds as TAM inhibitors” (2017).

The IC50 is the midpoint of a concentration-inhibition curve.

Assay [1] deals with Tyrosine-protein kinase JAK1 (Homo sapiens, UniProt P23458). In words: JAK1 Assay: As used herein, a selective JAK1 inhibitor is an inhibitor of JAK1 which is selective for JAK1 over JAK2, JAK3 and TYK2. In some embodiments, the compounds or salts are about 10-fold more selective for JAK1 over JAK2. In some embodiments, the compounds or salts are about 10-fold, about 15-fold, or about 20-fold more selective for JAK1 over JAK2 as calculated by measuring IC50 at 1 mM ….

For assay [2], the target named is T1, Phosphatidylinositol 4,5-bisphosphate 3-kinase catalytic subunit delta isoform (Homo sapiens, UniProt O00329).
T1 sequence (O00329 whole entry): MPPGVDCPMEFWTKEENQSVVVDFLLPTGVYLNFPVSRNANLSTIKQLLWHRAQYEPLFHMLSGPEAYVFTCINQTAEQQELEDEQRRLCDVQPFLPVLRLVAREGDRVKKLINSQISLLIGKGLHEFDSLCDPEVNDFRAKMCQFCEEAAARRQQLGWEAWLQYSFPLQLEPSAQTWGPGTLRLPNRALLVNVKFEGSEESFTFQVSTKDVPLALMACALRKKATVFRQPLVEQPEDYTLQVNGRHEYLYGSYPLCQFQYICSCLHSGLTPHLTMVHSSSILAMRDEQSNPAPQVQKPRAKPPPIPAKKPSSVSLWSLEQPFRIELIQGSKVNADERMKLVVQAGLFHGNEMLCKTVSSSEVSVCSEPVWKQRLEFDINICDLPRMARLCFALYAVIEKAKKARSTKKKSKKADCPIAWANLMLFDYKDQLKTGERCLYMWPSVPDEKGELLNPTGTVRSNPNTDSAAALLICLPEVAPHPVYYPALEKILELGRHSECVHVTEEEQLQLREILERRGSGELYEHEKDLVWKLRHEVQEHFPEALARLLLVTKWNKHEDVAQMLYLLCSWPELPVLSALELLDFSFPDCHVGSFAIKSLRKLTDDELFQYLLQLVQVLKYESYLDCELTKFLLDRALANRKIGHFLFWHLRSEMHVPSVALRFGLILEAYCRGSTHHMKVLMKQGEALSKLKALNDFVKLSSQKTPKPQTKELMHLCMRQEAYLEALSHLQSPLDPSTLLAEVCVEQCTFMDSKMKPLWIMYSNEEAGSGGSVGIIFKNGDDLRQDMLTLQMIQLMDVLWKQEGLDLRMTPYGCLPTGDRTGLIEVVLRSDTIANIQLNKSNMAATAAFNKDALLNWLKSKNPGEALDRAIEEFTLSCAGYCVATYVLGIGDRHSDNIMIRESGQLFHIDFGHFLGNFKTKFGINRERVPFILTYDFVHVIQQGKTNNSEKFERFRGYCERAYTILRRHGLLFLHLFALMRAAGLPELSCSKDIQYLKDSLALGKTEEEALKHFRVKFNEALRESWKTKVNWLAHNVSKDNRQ
In words: PI3K Delta Assay: In some embodiments, the PI3Kδ inhibitor is selective. By ¿selective¿ is meant that the compound binds to or inhibits a kinase with greater affinity or potency, respectively, compared to at least one other kinase. In some embodiments, the PI3Kδ inhibitors are selective inhibitors of PI3Kδ (e.g., over PI3Kα, PI3Kβ and PI3Kγ). In some embodiments, selectivity can be at least about 2-fold, 5-fold, 10-fold, at least about 20-fold, at least about 50-fold, at least about 100-fold, at least about 200-fold, at least about 500-fold or at least about 1000-fold. Selectivity can be measured by methods routine in the art. In some embodiments, selectivity can be tested at the Km ATP concentration of each enzyme. In some embodiments, the selectivity of compounds described herein can be determined by cellular assays associated with particular PI3K kinase activity.

The structures appear in SMILES notation.

Chain of Tyrosine-protein kinase JAK1 (P23458 whole entry): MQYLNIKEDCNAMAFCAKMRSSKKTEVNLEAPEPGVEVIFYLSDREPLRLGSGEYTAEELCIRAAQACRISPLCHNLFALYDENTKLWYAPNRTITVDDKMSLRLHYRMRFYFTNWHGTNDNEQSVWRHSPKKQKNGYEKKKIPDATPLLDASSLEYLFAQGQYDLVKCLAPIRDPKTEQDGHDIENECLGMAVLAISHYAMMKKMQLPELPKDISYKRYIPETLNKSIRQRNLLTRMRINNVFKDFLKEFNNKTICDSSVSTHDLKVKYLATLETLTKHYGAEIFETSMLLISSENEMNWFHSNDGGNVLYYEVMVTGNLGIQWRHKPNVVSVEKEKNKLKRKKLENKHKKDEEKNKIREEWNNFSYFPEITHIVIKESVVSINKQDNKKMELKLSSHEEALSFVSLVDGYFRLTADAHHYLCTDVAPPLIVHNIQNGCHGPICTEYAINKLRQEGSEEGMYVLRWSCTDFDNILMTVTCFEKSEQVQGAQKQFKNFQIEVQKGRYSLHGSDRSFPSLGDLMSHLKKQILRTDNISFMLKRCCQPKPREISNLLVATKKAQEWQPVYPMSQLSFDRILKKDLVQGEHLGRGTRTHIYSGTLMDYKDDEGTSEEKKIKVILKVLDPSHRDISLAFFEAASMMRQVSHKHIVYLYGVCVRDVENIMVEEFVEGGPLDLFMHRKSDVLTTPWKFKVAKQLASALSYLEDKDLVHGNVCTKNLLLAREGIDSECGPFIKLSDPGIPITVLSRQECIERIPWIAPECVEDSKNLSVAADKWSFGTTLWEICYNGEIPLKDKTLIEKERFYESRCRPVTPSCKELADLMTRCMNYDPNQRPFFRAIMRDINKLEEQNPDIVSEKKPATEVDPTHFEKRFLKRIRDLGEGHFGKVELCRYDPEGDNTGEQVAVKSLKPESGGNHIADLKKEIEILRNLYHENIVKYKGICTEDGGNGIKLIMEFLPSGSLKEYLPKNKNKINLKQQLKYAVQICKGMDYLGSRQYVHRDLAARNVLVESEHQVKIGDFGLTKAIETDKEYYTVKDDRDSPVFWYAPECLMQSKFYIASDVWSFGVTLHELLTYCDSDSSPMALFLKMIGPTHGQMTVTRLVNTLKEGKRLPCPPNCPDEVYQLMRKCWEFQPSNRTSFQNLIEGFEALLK

For the molecule `N#CCC1(n2cc(-c3ncnc4[nH]ccc34)cn2)CN(C2CCN(C(=O)Nc3ccc(F)cc3C(F)(F)F)CC2)C1`, the IC50 in assay [1] was < 10 nM.
The same measure, in the same setting: to `N#CCC1(n2cc(-c3ncnc4[nH]ccc34)cn2)CN(C2CCN(C(=O)c3ccnc(C(F)(F)F)n3)CC2)C1` belongs < 10 nM; to `N#CC[C@]1(n2cc(-c3ncnc4[nH]ccc34)cn2)C[C@H](N2CCC(Oc3cc(CN4CC(O)C4)cc(C(F)(F)F)n3)CC2)C1`, < 10 nM.
Still for that read-out and setting: with `N#CCC(C1CCN(c2nc3cccnc3o2)C1)n1cc(-c2ncnc3[nH]ccc23)cn1` (stereo unspecified) the figure was < 10 nM; with `N#CC[C@]1(n2cc(-c3ncnc4[nH]ccc34)cn2)C[C@H](N2CCN(C(=O)c3ccnc(C(F)(F)F)n3)CC2)C1`, < 10 nM.
For `CCNCc1cc(O[C@H]2CC[C@@H](N3CC(CC#N)(n4cc(-c5ncnc6[nH]ccc56)cn4)C3)CC2)nc(C(F)(F)F)c1`, in assay [1], the IC50 was < 10 nM.
On to `CCOc1c(C(C)n2nc(C)c3c(N)ncnc32)cc(C)c(C#N)c1-c1ccc(C(=O)N(C)C)nc1` (stereo unspecified), for which the IC50 in assay [2] is < 50 nM.
`C[C@H](O)CNCc1cc(OC2CCN([C@H]3C[C@](CC#N)(n4cc(-c5ncnc6[nH]ccc56)cn4)C3)CC2)nc(C(F)(F)F)c1`: the IC50 in assay [1] was < 10 nM.
Same read-out and setting: with `N#CCC(CN1CCN(C(=O)c2ccc(C#N)cc2F)CC1)n1ccc(-c2ncnc3[nH]ccc23)c1` (stereo unspecified) the figure was < 10 nM; with `N#CCC1(n2cc(-c3ncnc4[nH]ccc34)cn2)CN([C@H]2CC[C@@H](Oc3cc(CCO)nc(C(F)(F)F)n3)CC2)C1`, < 10 nM; with `N#CC[C@]1(n2cc(-c3ncnc4[nH]ccc34)cn2)C[C@H](N2CCC(Oc3cc(CCO)cc(C(F)(F)F)n3)CC2)C1`, < 10 nM.
The same measure, in the same setting: with `CC(C)(O)c1cc(O[C@H]2CC[C@@H](N3CC(CC#N)(n4cc(-c5ncnc6[nH]ccc56)cn4)C3)CC2)nc(C(F)(F)F)c1` the figure was < 10 nM; with `C[C@@H](CO)NCc1cc(OC2CCN([C@H]3C[C@](CC#N)(n4cc(-c5ncnc6[nH]ccc56)cn4)C3)CC2)nc(C(F)(F)F)c1`, < 10 nM.
The same measure, in the same setting: with `C[C@@H](O)c1nc2cnc3ccsc3c2n1[C@H]1CC[C@H](CC#N)OC1` the figure was < 100 nM; with `C[C@@H](O)CNCc1cc(OC2CCN([C@H]3C[C@](CC#N)(n4cc(-c5ncnc6[nH]ccc56)cn4)C3)CC2)nc(C(F)(F)F)c1`, < 10 nM; with `C[C@H](NC(=O)c1cc(F)c(N2CC(CC#N)(n3cc(-c4ncnc5[nH]ccc45)cn3)C2)cc1F)C(F)(F)F`, < 10 nM.
Regarding `N#CC[C@]1(n2cc(-c3ncnc4[nH]ccc34)cn2)C[C@H](N2CCC(Oc3cc(CN4CCC[C@H]4CO)cc(C(F)(F)F)n3)CC2)C1`, the IC50 in assay [1] was < 10 nM.
`N#CCC1(n2cc(-c3ncnc4[nH]ccc34)cn2)CN([C@H]2CC[C@@H](Oc3cc(CN4CC[C@@H](O)C4)cc(C(F)(F)F)n3)CC2)C1`: in assay [1], the IC50 was < 10 nM.
Take `N#CCC1(n2cc(-c3ncnc4[nH]ccc34)cn2)CN([C@H]2CC[C@@H](Oc3cc(CN4CC[C@H](O)C4)cc(C(F)(F)F)n3)CC2)C1` (single isomer, unassigned): the IC50 in assay [1] was < 10 nM.
As to `N#CCC(C1CCN(c2cccc(Cl)n2)C1)n1cc(-c2ncnc3[nH]ccc23)cn1` (single isomer, unassigned), the IC50 in assay [1] was < 10 nM.
The same measure, in the same setting: to `N#CCC1(n2cc(-c3ncnc4[nH]ccc34)cn2)CN(C2CCN(C(=O)c3ccnc(C(F)(F)F)c3F)CC2)C1` [ITACITINIB] belongs < 10 nM.
